Data set [1] can be described thus: Plasma level of corilagin, LC/MS analysis. Type of data set: in vivo, mice. Particulars: C57BL/6, mouse, 2 hrs after the last oral dose of 100 mg/kg, day 21, read-out: average circulating level. As for the experimental part: Plasma level of corilagin—LC/MS analysis. Corilagin in C57BL/6 mice two hours following last oral administration at day 21 was analyzed. Blood samples (˜500 μL/sample) were collected via cardiac puncture. Samples were placed in tubes containing heparin sodium and stored on ice until centrifuged for plasma.

For data set [2], the system named is TGFβ1 signaling (p-smad3) in A549 cells. The experiment in a line: TGFβ1-induced p-smad generation in cells (immunoblot). Type of data set: cell-based. As to conditions: 1 μM. As for the experimental part:
(§1) Immunoblot. Pulverized tissue and cells were lysed in RIP A buffer (150 mM NaCl, 50 mM Tris, pH 8.0, 1% Triton X-100, 0.5% sodium deoxycholate, 0.1% SDS, supplemented with protease and phosphatase inhibitors) and analyzed by immunoblotting. Densitometry was quantified using NIH Imaged software.

Data set [3] in a line: Bronchoalveolar lavage: immune cells and injury markers. Type of data set: in vivo. Particulars: BALF, bleomycin or saline treated mice. How it is done: Bronchoalveolar lavage. After the trachea was exposed, a 20-G catheter was inserted into the trachea through a small incision. 1 ml cold PBS was instilled into the mouse lungs followed by gentle aspiration repeated for three times. All the bronchoalveolar lavage fluid (BALF) was centrifuged and cell pellet was re-suspended in erythrocyte (RBC) lysis buffer (Sigma, St. Louis) followed by re-centrifugation. Cell number was counted using hemocytometer. Cell types of BALF were determined by morphology following Diff-quick stain of cytospin slides. About 500 cells were counted for each sample in order to determine the cell types. Macrophages account for more than 80% of the cells in BALF and were collected by centrifugation. After centrifugation, the supernatant was collected to measure total protein content using the BCA assay (Pierce), while the cell pellet was lysed for immunoblotting or RNA isolation.

A further data set concerns LOXL2-high A549 cells. The experiment in a line: Corilagin level in conditioned medium by LC-MS, A549. Type of data set: in vitro ADME. Particulars: 1 μM, 5 hrs.
A further data set deals with LOXL2-low HaCaT cells. The experiment in a line: Corilagin level in conditioned medium by LC-MS, HaCaT. It is filed as in vitro ADME. Particulars: 1 μM, 5 hrs.
Data set [4] relates to TGFβ1 signaling (p-smad3, snail 1). The experiment in a line: TGFβ1 signaling in NMuMG cells expressing wild-type or mutant LOXL2. Type of data set: cell-based. Particulars: 1 μM. How it is done:
as §1
Site-directed mutagenesis of LOXL2. Site-directed mutagenesis was performed to generate K614N, K731R, and K759R point mutations using Phusion Site-Directed Mutagenesis Kit (Thermo Scientific, Waltham, Mass.) according to manufacturer's instructions. A pcDNA3-hLOXL2-flag plasmid containing the cDNA fragment of wild-type human LOXL2 fused with a flag tag at the C-terminus, was used as the template DNA^18. Mutations were confirmed by DNA sequencing. The primers and their complementary strands used are: K614N forward 5′-[…]-3′ (SEQ ID NO:2), K614N reverse 5′-[…]-3′(SEQ ID NO:3); K731R forward 5′-[…]-3′(SEQ ID NO:4), K731R reverse 5′-[…]-3′(SEQ ID NO:5); K759R forward 5′-[…]-3′(SEQ ID NO:6), and K759R reverse 5′-[…]-3′(SEQ ID NO:7).

On to `O=C(O[C@@H]1O[C@@H]2COC(=O)c3cc(O)c(O)c(O)c3-c3c(cc(O)c(O)c3O)C(=O)O[C@H]([C@H]1O)[C@@H]2O)c1cc(O)c(O)c(O)c1` [corilagin, Corilagin], for which the concentration at 2 h in data set [1] turned out to be 80 nM. Also, the “TGFβ1-induced p-smads after longer pre-incubation” value in data set [2] (pre-incubation 3 h or 6 h) was “completely suppressed”. Further, the “effects on p-smad3 generation after knockdown of LOXL2” value in data set [2] (A549 cells and primary lung fibroblasts, 6 h) was “completely blocked”. Moreover, the “immune cell numbers or markers of injury” value in data set [3] was “no effect”. Moreover, the entries for the “corilagin concentration in conditioned medium” value in the data set with LOXL2-high A549 cells and in the data set on LOXL2-low HaCaT cells were “decreased dramatically” and “not”, respectively. Also, the “inhibition of TGFβ1 signaling in cells expressing K731R LOXL2” value in data set [4] is “completely resistant”.

For the origin of these results see patent publication US20210009551A1, “COMPOUNDS AND METHODS FOR TREATING FIBROSIS OR CANCER” (THE REGENTS OF THE UNIVERSITY OF CALIFORNIA, priority 2016, published 2021).
